In patent USRE38257E1, “Piperdine derivatives and hypotensives containing the same” (Ajinomoto Co., Inc., priority 1988, dated 2003):

Test system: male spontaneously hypertensive rats
Assay: Decrease in systolic blood pressure in spontaneously hypertensive rats after intravenous bolus injection, indirect (tail-cuff) method
Format: in vivo, rat
Conditions: for Decrease in systolic blood pressure (mmHg) time after administration (hour) 0.5: 0.5 hour after administration; for Decrease in systolic blood pressure (mmHg) time after administration (hour) 4: 4 hours after administration
Experimental: As test animals, four male spontaneously hypertensive rats (weight 400 to 440 g) that were sufficiently adapted for feeding and in which hypertension was confirmed were used.
Physiological saline aqueous solution containing 2.5% Nicolle and 2.5% ethanol of sample was intravenously administered by bolus injection at a dose of 1 ml per 1 kg of body weight. Systolic blood pressure after administration was measured by the indirect (tail-cuff) method.

[1] = dose 10 mg/kg i.v. bolus, hydrochloride, 10 mg/kg

SMILES	Decrease in systolic blood pressure (mmHg) time after administration (hour) 0.5 (dose 10 mg/kg i.v. bolus)	Decrease in systolic blood pressure (mmHg) time after administration (hour) 4 (dose 10 mg/kg i.v. bolus)	other results
COC(=O)Nc1ccc(C=CCN2CCC(=C3c4ccccc4C=Cc4ccccc43)CC2)cc1.Cl [Example 378, 4-(5H-Dibenzo[a,d]cyclohepten-5-ylidene)-1-(4-methoxycarbonylaminocinnamyl)piperidine hydrochloride]	–	–	Decrease in systolic blood pressure (mmHg) time after administration (hour) 0.5 (dose 1 mg/kg i.v. bolus): −106 mmHg; Decrease in systolic blood pressure (mmHg) time after administration (hour) 4 (dose 1 mg/kg i.v. bolus): −90 mmHg
CC(=O)Nc1ccc2c(c1)CC(CN1CCC(=C3c4ccccc4C=Cc4ccccc43)CC1)C2.Cl (stereo not drawn) [Example 334, 5′-acetylamino-2-(4-(5H-Dibenzo[a,d]cyclohepten-5-ylidene)-1-piperidinyl)methylindan hydrochloride]	–	–	Decrease in systolic blood pressure (mmHg) time after administration (hour) 0.5 (dose 3 mg/kg i.v. bolus): −130 mmHg; Decrease in systolic blood pressure (mmHg) time after administration (hour) 4 (dose 3 mg/kg i.v. bolus): −93 mmHg
CCOc1ccc(C(=O)CCCN2CCC(=C3c4ccccc4C=Cc4ccccc43)CC2)cc1OCC.Cl [Example 194, 4-(4-(5H-Dibenzo[a,d]cyclohepten-5-ylidene)-1-piperidinyl)-3′,4′-diethoxybutyrophenone hydrochloride]	−59 mmHg	−17 mmHg	–
CCCCCCCCN1CCC(=C2c3ccccc3C=Cc3ccccc32)CC1.Cl [Example 2, 4-(5H-Dibenzo[a,d]cyclohepten-5-ylidene)-1-octylpiperidine hydrochloride]	−125 mmHg	−34 mmHg	–
CCCC(=O)Nc1ccc(C=CCN2CCC(=C3c4ccccc4C=Cc4ccccc43)CC2)cc1.Cl [Example 381, 1-(4-Butanoylaminocinnamyl)-4-(5H-Dibenzo[a,d]cyclohepten-5-ylidene)piperidine hydrochloride]	–	–	Decrease in systolic blood pressure (mmHg) time after administration (hour) 0.5 (dose 3 mg/kg i.v. bolus): −136 mmHg
COc1cccc(C=CCN2CCC(=C3c4ccccc4C=Cc4ccccc43)CC2)c1OC.Cl [Example 344, 4-(5H-Dibenzo[a,d]cyclohepten-5-ylidene)-1-(2,3-dimethoxycinnamyl)piperidine hydrochloride]	–	–	Decrease in systolic blood pressure (mmHg) time after administration (hour) 0.5 (dose 1 mg/kg i.v. bolus): −123 mmHg; Decrease in systolic blood pressure (mmHg) time after administration (hour) 4 (dose 1 mg/kg i.v. bolus): −35 mmHg
Cl.Nc1ccccc1C=CCN1CCC(=C2c3ccccc3C=Cc3ccccc32)CC1 [Example 303, 1-(2-Aminocinnamyl)-4-(5H-dibenzo[a,d]cyclohepten-5-ylidene)-1-piperidine hydrochloride]	–	–	Decrease in systolic blood pressure (mmHg) time after administration (hour) 0.5 (dose 3 mg/kg i.v. bolus): −90 mmHg; Decrease in systolic blood pressure (mmHg) time after administration (hour) 4 (dose 3 mg/kg i.v. bolus): −19 mmHg
CCCCCCC(C#N)(CCCN1CCC(=C2c3ccccc3C=Cc3ccccc32)CC1)c1cccc(C(F)(F)F)c1.Cl (stereo not drawn) [Example 151, 5-(4-(5H-Dibenzo[ac]cyclohepten-5-ylidene)-1-piperidinyl)-2-hexyl-2-(3-trifluoromethylphenyl)valeronitrile hydrochloride]	−81 mmHg	−43 mmHg	–
Cl.O=C(CCCN1CCC(=C2c3ccccc3C=Cc3ccccc32)CC1)N1CCC(O)CC1 [Example 216, 1-(4-(4-(5H-Dibenzo[a,d]cyclohepten-5-ylidene)-1-piperidinyl)butanoyl)-4-hydroxypiperidine hydrochloride]	–	–	Decrease in systolic blood pressure (mmHg) time after administration (hour) 0.5 (dose 3 mg/kg i.v. bolus): −2 mmHg; Decrease in systolic blood pressure (mmHg) time after administration (hour) 4 (dose 3 mg/kg i.v. bolus): −27 mmHg
CC(=O)NC1CCC(CCCCN2CCC(=C3c4ccccc4C=Cc4ccccc43)CC2)CC1.Cl (stereo not drawn) [Example 260, 1-(4-acetylamino-1-cyclohexyl)-4-(4-(5H-dibenzo[a,d]cyclohepten-5-ylidene)-1-piperidinyl)butane hydrochloride]	−51 mmHg	−10 mmHg	–
CC(=O)Nc1ccc(C=CCN2CCC(=C3c4ccccc4C=Cc4ccccc43)CC2)cc1.Cl.Cl [Example 232, 1-(4-Acetylaminocinnamyl)-4-(5H-dibenzo[a,d]cyclohepten-5-ylidene)piperidine dihydrochloride]	–	–	Decrease in systolic blood pressure (mmHg) time after administration (hour) 0.5 (dose 1 mg/kg i.v. bolus): −92 mmHg; Decrease in systolic blood pressure (mmHg) time after administration (hour) 4 (dose 1 mg/kg i.v. bolus): −85 mmHg
Cl.N#CCCCN1CCC(=C2c3ccccc3C=Cc3ccccc32)CC1 [Example 165, 1-Cyano-3-[4-(5H-dibenzo[a,d]cyclohepten-5-ylidene)-1-piperidinyl)propane hydrochloride]	–	–	Decrease in systolic blood pressure (mmHg) time after administration (hour) 0.5 [1]: −22 mmHg; Decrease in systolic blood pressure (mmHg) time after administration (hour) 4 [1]: 12 mmHg
COc1ccc(CN2CCC(=C3c4ccccc4C=Cc4ccccc43)CC2)cc1.Cl [Example 119, 4-(5H-Dibenzo[a,d]cyclohepten-5-ylidene)-1-(4-methoxybenzyl)piperidine hydrochloride]	−34 mmHg	−5 mmHg	–
Cl.O=C1Cc2ccccc2C(=C2CCN(CCCCC3CCCCC3)CC2)c2ccsc21 [Example 180]	−25 mmHg	−24 mmHg	–
CC(=O)N1CCC(CCCN2CCC(=C3c4ccccc4C=Cc4ccccc43)CC2)CC1.Cl [Example 308, 1-(N-acetyl-4-piperidinyl)-3-(4-(5H-dibenzo[a,d]cyclohepten-5-ylidene)-1-piperidinyl)propane hydrochloride]	–	–	Decrease in systolic blood pressure (mmHg) time after administration (hour) 0.5 (dose 3 mg/kg i.v. bolus): −27 mmHg; Decrease in systolic blood pressure (mmHg) time after administration (hour) 4 (dose 3 mg/kg i.v. bolus): −5 mmHg
CCCC(CCN1CCC(=C2c3ccccc3C=Cc3ccccc32)CC1)C(=O)c1ccc(OC)c(OC)c1.Cl (stereo not drawn) [Example 277, 4-(4-(5H-dibenzo[a,d]cyclohepten-5-ylidene)-1-piperidinyl)-2-(1-propyl)-3′,4′-dimethoxybutyrophenone hydrochloride]	−27 mmHg	0 mmHg	–
COc1cccc(CN2CCC(=C3c4ccccc4C=Cc4ccccc43)CC2)c1.Cl [Example 118, 4-(5H-Dibenzo[a,d]cyclohepten-5-ylidene)-1-(3-methoxybenzyl)piperidine hydrochloride]	−129 mmHg	−24 mmHg	–
COc1cc(CN2CCC(=C3c4ccccc4C=Cc4ccccc43)CC2)cc(OC)c1OC [Example 188, 4-(5H-Dibenzo[a,d]cyclohepten-5-ylidene)-1-(3,4,5-trimethoxybenzyl)piperidine]	−94 mmHg	−12 mmHg	–
C1=Cc2ccccc2C(=C2CCN(CCCCC3CCCCC3)CC2)c2ccccc21.Cl [Example 283, 4-(4-(4-(5H-Dibenzo[a,d]cyclohepten-5-ylidene)-1-piperidinyl)-1-butyl)cyclohexane hydrochloride]	–	–	Decrease in systolic blood pressure (mmHg) time after administration (hour) 0.5 [1]: −112 mmHg; Decrease in systolic blood pressure (mmHg) time after administration (hour) 4 [1]: 4 mmHg
COc1ccc(C(=O)CCCN2CCC(=C3c4ccccc4CCc4ccccc43)CC2)cc1OC.Cl [Example 187, 4-(4-(10,11-Dihydro-5H-dibenzo[a,d]cyclohepten-5-ylidene)-1-piperidinyl)-3′,4′-dimethoxy-butyrophenone hydrochloride]	−47 mmHg	−9 mmHg	–
C1=Cc2ccccc2C(=C2CCN(CC3CCCCC3)CC2)c2ccccc21.Cl [Example 7, 1-Cyclohexylmethyl-4-(5H-dibenzo[a,d]cyclohepten-5-ylidene)piperidine hydrochloride]	−57 mmHg	−15 mmHg	–
Cl.O=[N+]([O-])c1ccc(C=CCN2CCC(=C3c4ccccc4CCc4ccccc43)CC2)cc1 [Example 350, 4-(10,11-Dihydro-5H-dibenzo[a,d]cyclohepten-5-ylidene)-1-(4-nitrocinnamyl)piperidine hydrochloride]	−136 mmHg	−85 mmHg	–
Cl.NS(=O)(=O)c1ccc(C=CCN2CCC(=C3c4ccccc4C=Cc4ccccc43)CC2)cc1 [Example 386, 1-(4-Aminosulfonylcinnamyl)-4-(5H-Dibenzo[a,d]cyclohepten-5-ylidene)piperidine hydrochloride]	−83 mmHg	−96 mmHg	–
CC(=O)N1CCCCC1CCCN1CCC(=C2c3ccccc3C=Cc3ccccc32)CC1.Cl (stereo not drawn) [Example 294, 1-(N-Acetyl-2-piperidinyl)-3-(4-(5H-Dibenzo[a,d]cyclohepten-5-ylidene)-1-piperidinyl)propane hydrochloride]	–	–	Decrease in systolic blood pressure (mmHg) time after administration (hour) 0.5 (dose 3 mg/kg i.v. bolus): −17 mmHg; Decrease in systolic blood pressure (mmHg) time after administration (hour) 4 (dose 3 mg/kg i.v. bolus): 7 mmHg
C1=Cc2ccccc2C(=C2CCN(CCCSc3ccccc3)CC2)c2ccccc21.Cl [Example 23, 3-(4-(5H-Dibenzo[a,d]cyclohepten-5-ylidene)-1-piperidinyl)-1-phenylthiopropane hydrochloride]	−34 mmHg	10 mmHg	–
CCCCC(O)(CCCN1CCC(=C2c3ccccc3C=Cc3ccccc32)CC1)c1ccc(OC)c(OC)c1.Cl (stereo not drawn) [Example 207, 1-butyl-4-(4-(5H-dibenzo[a,d]cyclohepten-5-ylidene)-1-piperidinyl)-1-(3,4-dimethoxy)phenyl-1-hydroxybutane hydroxybutane hydrochloride]	−98 mmHg	−43 mmHg	–
